One compound from patent US9994515B2, “Aryl naphthyl methanone oxime(s) and process for preparation thereof” (Council of Scientific & Industrial Research, priority 2013, dated 2018) can be followed below.

What all share (type): cell-based
For one experiment, the system named is SW620. The experiment is described as follows: Sulphorhodamine B assay in SW620 colon cancer cells. The settings on record: Homo sapiens, SW-620; SRB assay.
The next experiment concerns DLD1. The experiment is described as follows: Sulphorhodamine B assay in DLD1 colon cancer cells. The conditions noted are these: Homo sapiens, DLD-1; SRB assay. (The SRB assay estimates cell density from bound dye.)
The subject of experiment [1] is CD133+ DLD1 colon cancer cells. Put plainly: CD133+ colon cancer stem cell population by flow cytometry. The settings on record: 20 uM, 24 h, vehicle 15.30%. The method, then: FIG. 9. Centans reduces CD133+ colon cancer stem cells with a higher efficacy than salinomycin. DLD1 colon cancer cells were treated with indicated compounds for 24h following which the CD133+ population was assessed by flow cytometry using CD133 antibody or relevant isotype control antibody (BD biosciences) in a Becton Dickinson FACS Calibur. Numbers in the dot plot represent % CD133+ cells.

Another experiment relates to HCT116. The experiment is described as follows: Sulphorhodamine B assay in HCT116 colon cancer cells. The conditions noted are these: Homo sapiens, HCT-116; SRB assay.
In a further experiment the test system is Colo205. The experiment is described as follows: Sulphorhodamine B assay in Colo205 colon cancer cells. The settings on record: Homo sapiens, COLO 205; SRB assay.

Some results are limits rather than exact numbers.

Regarding `O=c1[nH]cc(F)c(=O)[nH]1` [Compound 5-FU, 5-fluoro uracil, reference compound], the IC50 (as a rule, the concentration that inhibits the measured activity by half) in the experiment on SW620 is greater than 50 µM; in the experiment on DLD1, 16.4 µM; in the experiment on HCT116, greater than 50 µM; in the experiment with Colo205 it was 38.1 µM. In addition, the “CD133+ population after treatment (minus isotype control)” value in experiment [1] is given as “no effect”.
